Among the data in US5387709A, “Substituted sulfonamides, process of preparation and medicines containing same” (Lipha Lyonnaise Industrielle Pharmaceutique, priority 1990, dated 1995) are IC50 values, retold here.

Where two headings read alike, the source gives them in different places. Bounds are passed on as bounds.

The subject of test [1] is platelets of guinea-pig. Kind of test: Inhibition of the platelet aggregation induced by U46619 (BORN test), guinea-pig platelets. It counts as cell-based. As to conditions: read-out: PLATELET AGGREGATION GUINEA-PIG IC 50. The text has this:
(A) Inhibition of the platelet aggregation induced by U46619, a stable analogue of TXA2 (9,11-dideoxy-11α,9α-epoxymethanoprostaglandine F2 α):
The tests determine a concentration of compound which inhibits at 50% (CI50) a liminar aggregation induced by U46619. The activities of the compounds of the present invention are given in example 108.
(§1) The products of examples 1 to 107 have been tested for platelet aggregation on guinea-pig and on the contraction of the aorta in rat as described previously.

Test [2] concerns rat aorta. As to the kind of experiment: Inhibition of the U46619 induced rat aorta vasoconstriction. As to conditions: contraction by U46619 (142 nM), rat thoracic aorta, 37° C., read-out: VASOCONSTRICTION RAT AORTA IC 50. It counts as cell-based. How it is done: (B) Inhibition of the U46619 induced rat aorta vasoconstriction:
male rats weighing about 300 g are put to death by euthanasia; the thoracic aorta is rapidly taken out. A sample of about 1 cm is cut into a spiral, and placed in a vat containing 20 ml of nutrient medium (Krebs-Henseleit) kept a 37° C. and oxygenated (O2 95%, CO2 5%). The contractions are recorded with an isotonic strain gauge. After a rest of 45 mn, supramaximum contractions are provoked by the addition of an analogue of TXA2 (U46619: 142 nM) to the survival medium. A plateau is generally reached after 10 mn of contact, the latter not exceeding 25 mn. A rest of 30 mn and a plurality of rinses take place after each contraction. The products are added 10 mn after U46619 and allowed to rest 15 mn, after which delay the inhibition is measured. The inhibitory concentration 50 (IC) is determined for each compound studied and on a minimum of 3 aortas. The activities of the compounds of the present invention are described in example 108.
as §1

On to `O=C(O)Cc1ccc(CC2(CNS(=O)(=O)c3c(F)c(F)c(F)c(F)c3F)CCCC2)cc1` [Example 100, 4-[[1-[[[(Pentafluorophenyl)sulfonyl]amino]methyl]cyclopentyl]methyl]benzeneacetic acid], for which the IC50 in test [1] (Cavia porcellus, Platelet) is above 5000 nM; in test [2] (Rattus norvegicus), above 1000 nM.
For `O=C(O)Cc1ccc(C[C@@H]2CCC[C@H]2NS(=O)(=O)c2ccccc2)cc1` (relative stereo) [Example 6, Trans-4-[[2-[[(phenyl)sulfonyl]amino]cyclopentyl]methyl]benzeneacetic acid], the IC50 in test [1] (Cavia porcellus, Platelet) was found to be 6300 nM; in test [2] (Rattus norvegicus), 560 nM.
For `O=C(O)Cc1ccc(CC2(CNS(=O)(=O)c3ccc(F)cc3)CCCC2)cc1` [Example 16, 4-[[1-[[[(4-Fluorophenyl)sulfonyl]amino]methyl]cyclopentyl]methyl]benzeneacetic acid], in that order: 2400 nM and 200 nM.
The matching figures for `O=C1CCC(c2ccc(CC3(CNS(=O)(=O)c4ccc(Cl)cc4)CCCC3)cc2)=NN1` [Example 31, 4-Chloro-N-[[1-[[4-(4,5-dihydro-3-oxo-2H-pyridazin-6-yl)phenyl]methyl]cyclopentyl]methyl]-benzenesulfonamide]: 2500 nM and at least 1000 nM.
With `O=C(O)Cc1ccc(CC2(CNS(=O)(=O)c3ccccc3F)CCCC2)cc1` [Example 98, 4-[[1-[[[(2-Fluorophenyl)sulfonyl]amino]methyl]cyclopentyl]methyl]benzeneacetic acid], the IC50 in test [1] (Cavia porcellus, Platelet) is 250 nM; in test [2] (Rattus norvegicus), 320 nM.
For the compound `O=C(O)CCC(=O)c1ccc(CC2(CNS(=O)(=O)c3ccc(Cl)cc3)CCCC2)cc1` [Example 30, 4-[4-[[1-[[[(4-Chlorophenyl)sulfonyl]amino]methyl]cyclopentyl]methyl]phenyl]-4-oxobutanoic acid], the IC50 in test [1] (Cavia porcellus, Platelet) worked out at 920 nM; in test [2] (Rattus norvegicus), 1000 nM.
The matching figures for `O=C(O)Cc1ccc(CC2(CNS(=O)(=O)c3ccccc3Cl)CCCC2)cc1` [Example 32, 4-[[1-[[[(2-Chlorophenyl)sulfonyl]amino]methyl]cyclopentyl]methyl]benzeneacetic acid]: 1800 nM and 400 nM.
The matching figures for `Cc1ccc(S(=O)(=O)N[C@@H]2CCC[C@H]2Cc2ccc(CC(=O)O)cc2)cc1` (relative stereo) [Example 7, Trans-4-[[2-[[(4-methylphenyl)sulfonyl]amino]cyclopentyl]methyl]-benzeneacetic acid]: 3300 nM and 300 nM.
For `Cc1cnc2c(S(=O)(=O)NCC3(Cc4ccc(CC(=O)O)cc4)CCCC3)cccc2c1` [Example 66, 4-[[1-[[[(3-Methylquinol-8-yl)sulfonyl]amino]methyl]cyclopentyl]methyl]benzeneacetic acid], the IC50 in test [1] (Cavia porcellus, Platelet) was above 5000 nM; in test [2] (Rattus norvegicus), above 1000 nM.
For `CN(C)c1cccc2c(S(=O)(=O)NCC3(Cc4ccc(CC(=O)O)cc4)CCCC3)cccc12` [Example 104, 4-[[1-[[[[5-(Dimethylamino)naphthalen-1-yl]sulfonyl]amino]methyl]cyclopentyl]methyl]benzeneacetic acid], in that order: above 5000 nM and above 1000 nM.
The matching figures for `O=S(=O)(NCC1(Cc2ccc(Cc3nnn[nH]3)cc2)CCCC1)c1ccc(Cl)cc1` [Example 81, 4-Chloro-N-[1-[[[4-[(1H-tetrazol-5-yl)methyl]phenyl]methyl]cyclopentyl]methyl]benzenesulfonamide]: 1600 nM and 60 nM.
In the case of `O=C(O)Cc1ccc(CC2(CNS(=O)(=O)c3ccc(C4CCCCC4)cc3)CCCC2)cc1` [Example 99, 4-[[1-[[[(4-Cyclohexylphenyl)sulfonyl]amino]methyl]cyclopentyl]methyl]benzeneacetic acid], the IC50 in test [1] (Cavia porcellus, Platelet) is above 5000 nM; in test [2] (Rattus norvegicus), above 1000 nM.
As to `O=C(O)Cc1ccc(CC2(CNS(=O)(=O)c3ccc([N+](=O)[O-])cc3)CCCC2)cc1` [Example 95], the IC50 in test [1] (Cavia porcellus, Platelet) came to 570 nM; in test [2] (Rattus norvegicus), 280 nM.
Turning to `O=C(O)Cc1ccc(C[C@@H]2CCC[C@@H]2NS(=O)(=O)c2ccc(Cl)cc2)cc1` (relative stereo) [Example 3, Cis-4-[[2-[[(4-chlorophenyl)sulfonyl]amino]cyclopentyl]methyl]benzeneaceticacid], the IC50 turned out to be 600 nM in test [1] (Cavia porcellus, Platelet) and 60 nM in test [2] (Rattus norvegicus).
In the case of `CC(C)(C)c1ccc(S(=O)(=O)NCC2(Cc3ccc(CC(=O)O)cc3)CCCC2)cc1` [Example 61, 4-[[1-[[[[4-(1,1-Dimethylethyl)phenyl]sulfonyl]amino]methyl]cyclopentyl]methyl]benzeneacetic acid], the IC50 in test [1] (Cavia porcellus, Platelet) is above 5000 nM; in test [2] (Rattus norvegicus) it was above 1000 nM.
The matching figures for `CCCCCCc1ccc(S(=O)(=O)NCC2(Cc3ccc(CC(=O)O)cc3)CCCC2)cc1` [Example 94, 4-[[1-[[[(4 -Hexylphenyl)sulfonyl]amino]methyl]cyclopentyl]methyl]benzeneacetic acid]: 1800 nM and above 1000 nM.
The matching figures for `O=C(O)Cc1ccc(C2(CNS(=O)(=O)c3ccc(Cl)cc3)CC2)cc1` [Example 12, 4-[1-[[[(4-Chlorophenyl)sulfonyl]amino]methyl]cyclopropyl]benzeneacetic acid]: 1800 nM and 70 nM.
The matching figures for `CC1(C)C(C)(C)C1(CNS(=O)(=O)c1ccc(Cl)cc1)Cc1ccc(CC(=O)O)cc1` [Example 90, 4-[[1-[[[(4-Chlorophenyl)sulfonyl]amino]methyl]-2,2,3,3-tetramethylcyclopropyl]methyl]benzeneacetic acid]: above 5000 nM and above 1000 nM.
As for “Complex of sodium trans-4-[[2-[[(4-chlorophenyl)sulfonyl]amino]cyclopentyl]methyl]benzeneacetate and β-cyclodextrine (1:1) [Example 22]”, the IC50 worked out at 710 nM in test [1] and 150 nM in test [2].
`O=C(O)Cc1ccc(C2(CNS(=O)(=O)c3ccc(Cl)cc3)CCC2)cc1` [Example 13, 4-[1[[[(4-Chlorophenyl)sulfonyl]amino]methyl]cyclobutyl]benzeneacetic acid]: the IC50 in test [1] (Cavia porcellus, Platelet) was found to be 680 nM; in test [2] (Rattus norvegicus), 60 nM.
The matching figures for `CS(=O)(=O)c1ccc(S(=O)(=O)NCC2(Cc3ccc(CC(=O)O)cc3)CCCC2)cc1` [Example 63, 4-[[1-[[[(4-Methylsulfonylphenyl)sulfonyl]amino]methyl]cyclopentyl]methyl]benzeneacetic acid]: above 5000 nM and above 1000 nM.
For `O=C(O)Cc1ccc(CC2(CNS(=O)(=O)c3ccc(C(F)(F)F)cc3)CCCC2)cc1` [Example 55, 4-[[1-[[[(4-Trifluoromethylphenyl)sulfonyl]amino]methyl]cyclopentyl]methyl]benzeneacetic acid], the IC50 came to 2900 nM in test [1] (Cavia porcellus, Platelet) and 100 nM in test [2] (Rattus norvegicus).
For the compound `CCN(CC)CCOC(=O)Cc1ccc(CC2(CNS(=O)(=O)c3ccc(Cl)cc3)CCCC2)cc1` [Example 79, 2-(Diethylamino)ethyl 4-[[1-[[[(4-Chlorophenyl)sulfonyl]amino]methyl]cyclopentyl]methyl]benzeneacetate], the IC50 in test [1] (Cavia porcellus, Platelet) is 100 nM; in test [2] (Rattus norvegicus) it was 170 nM.
For `NC(=O)Cc1ccc(CC2(CNS(=O)(=O)c3ccc(Cl)cc3)CCCC2)cc1` [Example 75, 4-[[1-[[[(4-Chlorophenyl)sulfonyl]amino]methyl]cyclopentyl]methyl]benzeneacetamide], the IC50 in test [1] (Cavia porcellus, Platelet) was above 5000 nM; in test [2] (Rattus norvegicus) it was above 1000 nM.
The matching figures for `O=C(O)Cc1ccc(CC2(CNS(=O)(=O)c3ccco3)CCCC2)cc1` [Example 70, 4-[[1-[[[(fur-2-yl)sulfonyl]amino]methyl]cyclopentyl]methyl]benzeneacetic acid]: above 5000 nM and 1000 nM.
Turning to `O=C(O)Cc1ccc(C[C@@H]2CCC[C@H]2NS(=O)(=O)c2ccc(Cl)cc2)cc1` (relative stereo) [Example 2, Sodium trans-4-[[2-[[(4-chlorophenyl)sulfonyl]amino]-cyclopentyl]methyl]benzene-acetate], the IC50 in test [1] stood at 720 nM; in test [2] (Rattus norvegicus), 70 nM.
Regarding `CC(=O)c1ccc(S(=O)(=O)NCC2(Cc3ccc(CCO)cc3)CCCC2)cc1` [Example 43, 4-Acetyl-N-[[1-[[4-(2-hydroxyethyl)phenyl]methyl]cyclopentyl]methyl]-benzenesulfonamide], the IC50 in test [1] (Cavia porcellus, Platelet) was above 5000 nM; in test [2] (Rattus norvegicus), above 1000 nM.
As for `O=C(O)Cc1ccc(CC2(CNS(=O)(=O)c3ccc(-c4ccccc4)cc3)CCCC2)cc1` [Example 101, 4-[[1-[[([1,1'-Biphenyl-4-yl]sulfonyl)amino]methyl]cyclopentyl]methyl]benzeneacetic acid], the IC50 in test [1] (Cavia porcellus, Platelet) was above 5000 nM; in test [2] (Rattus norvegicus) it was above 1000 nM.
